For test [1], the target named is T1, B-Raf kinase (Homo sapiens, UniProt P15056).
T1 construct: purchased Upstate Biotechnology
As to the kind of experiment: B-Raf kinase assay ([33P] incorporation into MEK1 K97R). Format: biochemical. The settings on record: recombinant B-Raf, 8 μM ATP, 30 min, 30° C.; read-out: IC50 ranking against B-Raf kinase. The protocol: Inhibition of kinase activity by a test compound disclosed herein was estimated by quantifying the amount of [^33P] incorporation of a substrate in the presence of the test compound. Standard assay conditions were 5 ng of recombinant B-Raf kinase (Upstate Biotechnology) with 500 ng MEK1(Map-erk kinase; K97R) in the assay buffer (8 μM ATP, 0.5 μCi [^33P]ATP (specific activity 3000 Ci/mmol, PerkinElmer), 50 mM Tris/HCl (pH 7.5), and 1 mM EGTA, 1 mM Na3VO4, 1% 2-mercaptoethanol, 0.1% Brij 35, and 0.2 mg/ml BSA) in a final volume of 25 μL. Reactions were incubated at 30° C. for 30 min and stopped by adding 3% phosphoric acid, harvested onto a 96-well GF/B UniFilter (PerkinElmer) using a unifilter harvester (PerkinElmer), and counted with a TopCount microplate scintillation counter (PerkinElmer). The IC50 values of inhibitors were determined after carrying out assays at 3-fold serially diluted concentrations of each compound in duplication. The results were analyzed using linear regression software (GraphPad Prism 4; GraphPad Software Inc.).

The target in test [2] is T2, B-Raf^V600E kinase (Homo sapiens, UniProt P15056, V600E).
T2 construct: purchased Upstate Biotechnology
As to the kind of experiment: B-Raf V600E kinase assay ([33P] incorporation into MEK1 K97R). Format: biochemical. The note with it: recombinant B-Raf^V600E, 8 μM ATP, 30 min, 30° C.; read-out: IC50 ranking against B-Raf^V600E kinase. Here is the method: (§1) Inhibition of kinase activity by a test compound disclosed herein was estimated by quantifying the amount of [^33P] incorporation of a substrate in the presence of the test compound. Standard assay conditions were 5 ng of recombinant B-Raf^V600E kinase (Upstate Biotechnology) with 500 ng MEK1 (K97R) in assay buffer (8 μM ATP, 0.5 μCi [^33P]ATP (specific activity 3000 Ci/mmol, PerkinElmer), 50 mM Tris/HCl (pH 7.5), and 1 mM EGTA, 1 mM Na3VO4, 1% 2-mercaptoethanol, 0.1% Brij 35, and 0.2 mg/ml BSA), and the test compound (diluted with 4% DMSO) or DMSO alone (as a control) in a final volume of 25 μL. Reactions were incubated at 30° C. for 30 min and stopped by adding 3% phosphoric acid, harvested onto a 96-well GF/B UniFilter (PerkinElmer) using a unifilter harvester (PerkinElmer), and counted with a TopCount microplate scintillation counter (PerkinElmer). The IC50 values of inhibitors were determined after carrying out assays at 3-fold serially diluted concentrations of each compound in duplication. The results were analyzed using linear regression software (GraphPad Prism 4; GraphPad Software Inc.).

Test [3] has as its target T3, C-Raf kinase (Homo sapiens, UniProt P04049).
T3 construct: purchased Upstate Biotechnology
In words: C-Raf kinase assay ([33P] incorporation into MEK1 K97R). It is filed as biochemical. The note with it: recombinant C-Raf, 8 μM ATP, 30 min, 30° C.; read-out: IC50 ranking against C-Raf kinase. Here is the method: as §1, with “were 2” for “were 5”, “recombinant C-Raf” for “recombinant B-Raf^V600E”, “ng MEK1(K97R)” for “ng MEK1 (K97R)”

For test [4], the system named is B-Raf^V600E mutant A375 melanoma cell. In words: Cell proliferation assay (CELLTITER 96), A375. It is filed as cell-based. The settings on record: Homo sapiens, A-375; A375, 72 hours; read-out: Cytotoxicity (IC50 Ranking) A375 (B-Raf^V600E). Here is the method: (§2) Inhibition of cell growth by compounds was measured using CELLTITER 96® assay. The cytotoxicity of compounds was evaluated in B-Raf^V600E mutant A375 melanoma cell, B-Raf^V600E mutant COLO205 colon cancer cell, and SK-MEL-2 melanoma cell with wild type B-Raf (B-Raf^wt) and NRASQ^Q61R mutation. A375 and COLO205 cell line were cultured in DMEM containing 10% FCS and incubated at 37° C. in 5% CO2 atmosphere. SK-MEL-2 cell line was cultured in MEM containing 10% FCS and incubated at 37° C. in 5% CO2 atmosphere. A375, COLO205 and SK-MEL-2 cell were seeded into 96-well plates at 2000, 2000, and 4000 cells/well, respectively, and allowed to adhere for overnight. Then, these seeded cells were treated with increasing concentrations of the test compounds and incubated for another 72 hours. At the end of the incubation, CELLTITER 96® Aqueous One Solution Reagent (Promega) was added and incubated for 4 hours. Cell viability was determined by measuring absorbance at 490 nm using EMAX® microplate reader (Molecular Devices).
(§3) The 50% inhibitory concentration (IC50) value was calculated by plotting the percentage of growth inhibition against the concentration of compound, using GraphPad Prism5 software for curve fitting.

Test [5] relates to B-Raf^V600E mutant COLO205 colon cancer cell. In words: Cell proliferation assay (CELLTITER 96), COLO205. The settings on record: Homo sapiens, COLO 205; COLO205, 72 hours; read-out: Cytotoxicity (IC50 Ranking) COLO205 (B-Raf^V600E). It is filed as cell-based. Here is the method:
as §2, §3

In test [6] the test system is SK-MEL-2 melanoma cell with wild type B-Raf (B-Raf^wt) and NRAS^Q61R mutation. As to the kind of experiment: Cell proliferation assay (CELLTITER 96), SK-MEL-2. Format: cell-based. The settings on record: Homo sapiens; SK-MEL-2, 72 hours; given as bound; read-out: Cytotoxicity (IC50 Ranking) SK-MEL-2 (NRAS^Q61R, B-Raf^wt). Here is the method: as §2, §3

Each structure is given as a SMILES string.

T2 sequence (P15056 whole entry V600E): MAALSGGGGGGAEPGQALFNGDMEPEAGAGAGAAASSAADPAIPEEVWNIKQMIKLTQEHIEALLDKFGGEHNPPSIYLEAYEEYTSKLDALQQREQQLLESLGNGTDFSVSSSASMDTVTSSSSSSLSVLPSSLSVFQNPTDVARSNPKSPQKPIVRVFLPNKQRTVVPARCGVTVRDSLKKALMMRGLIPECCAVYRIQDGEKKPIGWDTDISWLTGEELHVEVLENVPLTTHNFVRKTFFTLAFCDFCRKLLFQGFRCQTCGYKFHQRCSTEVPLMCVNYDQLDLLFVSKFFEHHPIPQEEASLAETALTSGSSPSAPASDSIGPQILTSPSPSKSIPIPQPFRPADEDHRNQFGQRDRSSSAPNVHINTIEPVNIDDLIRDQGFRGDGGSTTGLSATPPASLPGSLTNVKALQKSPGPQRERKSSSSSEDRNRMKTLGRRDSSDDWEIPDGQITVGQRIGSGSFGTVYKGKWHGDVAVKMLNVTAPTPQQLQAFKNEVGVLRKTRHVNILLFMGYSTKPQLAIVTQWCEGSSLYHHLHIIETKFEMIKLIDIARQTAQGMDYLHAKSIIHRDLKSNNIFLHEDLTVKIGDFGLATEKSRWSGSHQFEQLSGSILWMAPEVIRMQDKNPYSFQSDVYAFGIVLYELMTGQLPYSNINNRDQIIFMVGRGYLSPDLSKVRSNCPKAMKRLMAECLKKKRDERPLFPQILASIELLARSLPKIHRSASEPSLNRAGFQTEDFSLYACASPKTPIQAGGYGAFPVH
T1 sequence (P15056 whole entry): as the sequence (P15056 whole entry V600E) above, with E600V counted along it
T3 sequence (P04049 whole entry): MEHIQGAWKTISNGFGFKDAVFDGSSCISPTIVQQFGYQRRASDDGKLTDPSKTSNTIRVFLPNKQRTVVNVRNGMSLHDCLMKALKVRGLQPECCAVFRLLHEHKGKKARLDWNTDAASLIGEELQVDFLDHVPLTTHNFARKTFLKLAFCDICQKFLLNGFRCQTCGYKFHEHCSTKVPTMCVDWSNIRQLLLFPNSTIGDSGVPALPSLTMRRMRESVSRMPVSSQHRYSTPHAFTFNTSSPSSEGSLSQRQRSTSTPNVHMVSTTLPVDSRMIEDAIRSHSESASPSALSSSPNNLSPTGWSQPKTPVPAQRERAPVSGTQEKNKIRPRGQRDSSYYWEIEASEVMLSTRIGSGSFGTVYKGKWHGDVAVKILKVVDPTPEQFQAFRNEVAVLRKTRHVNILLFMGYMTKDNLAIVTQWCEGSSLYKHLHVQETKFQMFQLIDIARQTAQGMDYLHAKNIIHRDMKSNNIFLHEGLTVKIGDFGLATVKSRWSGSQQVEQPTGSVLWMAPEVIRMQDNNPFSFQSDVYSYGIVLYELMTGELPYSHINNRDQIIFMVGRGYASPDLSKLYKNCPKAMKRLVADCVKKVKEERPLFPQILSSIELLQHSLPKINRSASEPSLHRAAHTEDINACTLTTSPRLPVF

Consider `CCCS(=O)(=O)N(C)c1ccc(F)c(Nc2ccc3ncc(OC)nc3c2C#N)c1F` [compound 43, N-(3-(5-cyano-3-methoxyquinoxalin-6-ylamino)-2,4-difluorophenyl)-N-methylpropane-1-sulfonamide], for which the IC50 (as a rule, the concentration at which inhibition is half-maximal) in test [1] was less than 300 nM; in test [2], less than 300 nM; in test [3], less than 300 nM; in test [4], less than 300 nM; in test [5], less than 300 nM; in test [6], more than 10 µM.
As for `CCCS(=O)(=O)Nc1ccc(F)c(Nc2ccc3ncc(O)nc3c2C#N)c1F` [compound 15, N1-{3-[(5-cyano-3-hydroxy-6-quinoxalinyl)amino]-2,4-difluorophenyl}-1-propanesulfonamide], the IC50 was less than 300 nM in test [1]; less than 300 nM in test [2]; less than 300 nM in test [3]; 300 to 1000 nM in test [4]; 300 to 1000 nM in test [5]; more than 10 µM in test [6].
Turning to `CCCS(=O)(=O)Nc1ccc(F)c(Nc2ccc3ncc(N4CCOCC4)nc3c2C#N)c1Cl` [compound 48, N-(2-chloro-3-(5-cyano-3-morpholinoquinoxalin-6-ylamino)-4-fluorophenyl)propane-1-sulfonamide], the IC50 in test [1] is less than 300 nM; in test [2], less than 300 nM; in test [3], less than 300 nM; in test [4] it was less than 300 nM; in test [5] it was less than 300 nM; in test [6], more than 10 µM.
For `CCCS(=O)(=O)N(CC)c1ccc(F)c(Nc2ccc3ncc(OC)nc3c2C#N)c1F` [compound 42, N-(3-(5-cyano-3-methoxyquinoxalin-6-ylamino)-2,4-difluorophenyl)-N-ethylpropane-1-sulfonamide], the IC50 in test [1] was less than 300 nM; in test [2] it was less than 300 nM; in test [3], less than 300 nM; in test [4], less than 300 nM; in test [5], less than 300 nM; in test [6], more than 10 µM.
Turning to `CCCS(=O)(=O)Nc1ccc(F)c(Nc2ccc3ncc(OCCOC)nc3c2[N+](=O)[O-])c1F` [compound 7, N1-(2,4-difluoro-3-[3-(2-methoxyethoxy)-5-nitro-6-quinoxalinyl]aminophenyl)-1-propanesulfonamide], the IC50 in test [1] was less than 300 nM; in test [2], less than 300 nM; in test [3], less than 300 nM; in test [4] it was less than 300 nM; in test [5], less than 300 nM; in test [6], more than 10 µM.
Regarding `CCCS(=O)(=O)Nc1ccc(F)c(Nc2ccc3ncc(Nc4ccc(F)cc4F)nc3c2)c1F` [compound 13, N1-(3-{[3-(2,4-difluoroanilino)-6-quinoxalinyl]amino}-2,4-difluorophenyl)-1-propanesulfonamide], the half-inhibitory concentration (IC50) is less than 300 nM in test [1]; less than 300 nM in test [2]; less than 300 nM in test [3]; 300 to 1000 nM in test [4]; 1000 to 10000 nM in test [5]; more than 10 µM in test [6].
Take `CCOc1cnc2ccc(Nc3cc(NS(C)(=O)=O)ccc3F)c(C#N)c2n1` [compound 27, N-(3-(5-cyano-3-ethoxyquinoxalin-6-ylamino)-4-fluorophenyl)methanesulfonamide]: the IC50 in test [1] is 1000 to 10000 nM; in test [2], 1000 to 10000 nM; in test [3] it was 1000 to 10000 nM; in test [4] it was 1000 to 10000 nM; in test [5], 300 to 1000 nM; in test [6], more than 10 µM.
For `CCCS(=O)(=O)Nc1ccc(C)c(Nc2ccc3ncc(N4CCOCC4)nc3c2C#N)c1` [compound 39, N-(3-(5-cyano-3-morpholinoquinoxalin-6-ylamino)-4-methylphenyl)propane-1-sulfonamide], the IC50 is 300 to 1000 nM in test [1]; 300 to 1000 nM in test [2]; 1000 to 10000 nM in test [3]; 1000 to 10000 nM in test [4]; 1000 to 10000 nM in test [5]; more than 10 µM in test [6].
Take `CCCS(=O)(=O)Nc1ccc(F)c(Nc2ccc3ncc(N(C)C)nc3c2C#N)c1F` [compound 18, N-(3-(5-cyano-3-(dimethylamino)quinoxalin-6-ylamino)-2,4-difluorophenyl)propane-1-sulfonamide]: the IC50 is less than 300 nM in test [1]; less than 300 nM in test [2]; less than 300 nM in test [3]; less than 300 nM in test [4]; less than 300 nM in test [5]; more than 10 µM in test [6].
Take `CS(=O)(=O)Nc1ccc(F)c(Nc2ccc3ncc(N4CCOCC4)nc3c2C#N)c1` [compound 26, N-(3-(5-cyano-3-morpholinoquinoxalin-6-ylamino)-4-fluorophenyl)methanesulfonamide]: the IC50 in test [1] was 1000 to 10000 nM; in test [2] it was 1000 to 10000 nM; in test [3], 1000 to 10000 nM; in test [4] it was 1000 to 10000 nM; in test [5], 1000 to 10000 nM; in test [6] it was more than 10 µM.
Consider `CCCS(=O)(=O)Nc1ccc(F)c(Nc2ccc3ncc(NC(=O)C4CC4)nc3c2)c1F` [compound 8, N1-(7-{2,6-difluoro-3-[(propylsulfonyl)amino]anilino}-2-quinoxalinyl)-1-cyclopropanecarboxamide], for which the IC50 in test [1] is 300 to 1000 nM; in test [2] it was 300 to 1000 nM; in test [3], 300 to 1000 nM; in test [4], 1000 to 10000 nM; in test [5] it was 1000 to 10000 nM; in test [6], more than 10 µM.
On to `CCOc1cnc2ccc(Nc3cc(NS(=O)(=O)c4ccccc4)ccc3F)c(C#N)c2n1` [compound 24, N-(3-(5-cyano-3-ethoxyquinoxalin-6-ylamino)-4-fluorophenyl)benzenesulfonamide], for which the IC50 was less than 300 nM in test [1]; less than 300 nM in test [2]; less than 300 nM in test [3]; 300 to 1000 nM in test [4]; less than 300 nM in test [5]; more than 10 µM in test [6].

For the origin of these results see patent US10745360B2, “Quinoxaline compounds, method for preparing the same and use thereof” (Development Center for Biotechnology, priority 2014, dated 2020).
